Non-standard residues stand in square brackets, D forms with d. Residues, ends and D or L forms follow the SMILES beside them. *: point of attachment. AFC = O=c1cc(C(F)(F)F)c2ccc(N*)cc2o1; AMC = Cc1cc(=O)oc2cc(N*)ccc12
Tested on: plasma proteases

| Compound | Cleavage / fluorescence in plasma in the absence of LF | Specificity for LF | Hydrolysis in plasma without LF |
| --- | --- | --- | --- |
| CC(=O)N[C@@H](CCCNC(=N)N)C(=O)N[C@@H](CCCNC(=N)N)C(=O)N[C@@H](CCCCN)C(=O)N[C@@H](CCCCN)C(=O)N[C@H](C(=O)N[C@@H](Cc1ccc(O)cc1)C(=O)N1CCC[C@H]1C(=O)Nc1ccc2c(C)cc(=O)oc2c1)C(C)C [LBL 10079] (Ac-RRKKVYP-{AMC}) | dramatic increase in fluorescence | non-specifically cleaved by plasma proteases |  |
| CC(=O)N[C@@H](CCCNC(=N)N)C(=O)N[C@H](CCCNC(=N)N)C(=O)N[C@H](CCCCN)C(=O)N[C@H](CCCCN)C(=O)N[C@H](C(=O)N[C@@H](Cc1ccc(O)cc1)C(=O)N1CCC[C@H]1C(=O)Nc1ccc2c(C)cc(=O)oc2c1)C(C)C [LBL 10081] (Ac-R[dR][dK][dK]VYP-{AMC}) | minimal increase in hydrolysis | specific for LF | minimal increase in hydrolysis |
| CC(=O)N[C@H](CCCNC(=N)N)C(=O)N[C@H](CCCNC(=N)N)C(=O)N[C@H](CCCCN)C(=O)N[C@H](CCCCN)C(=O)N[C@H](C(=O)N[C@@H](Cc1ccc(O)cc1)C(=O)N1CCC[C@H]1C(=O)Nc1ccc2c(C)cc(=O)oc2c1)C(C)C [LBL 10097] (Ac-[dR][dR][dK][dK]VYP-{AMC}) | minimal increase in hydrolysis | specific for LF | minimal increase in hydrolysis |
| CC(=O)N[C@@H](CCCNC(=N)N)C(=O)N[C@H](CCCNC(=N)N)C(=O)N[C@H](CCCCN)C(=O)N[C@H](CCCCN)C(=O)N[C@H](C(=O)N[C@@H](Cc1ccc(O)cc1)C(=O)N1CCC[C@H]1C(=O)Nc1ccc2c(C(F)(F)F)cc(=O)oc2c1)C(C)C [LBL 10108] (Ac-R[dR][dK][dK]VYP-{AFC}) | neither peptide was cleaved |  |  |

Source: patent US9932570B2 (priority 2015, dated 2018)
